Patent US5998580A, “Photosensitive caged macromolecules” (priority 1995, dated 1999)
Where no end group is shown, it is not given here. The star is where a group is joined. α‑carboxy 2‑nitrobenzyl = O=C(O)C(c1ccccc1[N+](=O)[O-])*

Columns and labels:
[1] = tested on: toad stomach smooth muscle cells; experiment: rate of shortening of single smooth muscle cells (calcium-mediated contraction); format: cell-based; conditions: 200 μM; after photolysis versus without photolysis (FIG. 5)
Experimental: The in vivo effects of 1-CAG-RS-20 (200 μM) on the rate of shortening of single smooth muscle cells both before and after UV exposure was performed essentially as described in Itoh et al. (Nature 338: 164-67, 1989). Images of the cells were recorded using phase contrast optics and measurements of cell length were carried out as described by Itoh et al., supra. An interactive computer analysis program was used to measure cell length at successive intervals after the onset of cell membrane depolarization and subsequent increase in cytoplasmic Ca^2+ concentration that normally triggers contraction.

[2] = tested on: single smooth muscle cells; experiment: calcium-dependent enhancement of calcium (inward) current after repetitive depolarization in single smooth muscle cells; format: cell-based; conditions: cell injected with peptide
Experimental: The in vivo effects of 1-CAG-RS-20 on calcium-dependent enhancement of calcium current in smooth muscle were evaluated according to the methods described by McCarron et al. (Nature 357: 74-77). Photolysis of 1-CAG-RS-20 was accomplished by selectively exposing cells to a beam of UV irradiation using a light source fitted with a controllable shutter. In addition, experiments were carried out by recording phase contrast images in the far red portion of the spectrum to monitor the effects of 1-CAG-RS-20 on the contractile responses of the cells to Ca^2+ influx resulting from depolarization. Data was analyzed according to the methods described in Itoh et al. (Nature 338: 164-167, 1989).
Shown in these panels (FIG. 3) are the inward currents resulting from depolarization both before and after the train of depolarizing pulses. The trace labelled #1 was obtained before the train and that after the train is labelled #2 (FIG. 3C).

[3] = tested on: Smooth muscle myosin light chain kinase (MLCK); experiment: inhibition of smooth muscle myosin light chain kinase (MLCK) activity, 32P incorporation into light chain; format: biochemical; conditions: before photolysis; 100 nM calmodulin
Experimental: (§1) The standard photolysis protocol involves exposure of caged peptide (0.1 to 1 ml; 0.1 mM to 1 mM in 50 mM Tris pH 7.5) in a quartz cuvette (1 cm path length) to the beam of a continuous 75 watt Xenon arc lamp that is filtered through a 300-350 nm band pass filter (UG-11 filter). This standard in vitro photolysis protocol was carried out for 30 minutes at room temperature.
Smooth muscle myosin light chain kinase (MLCK) (0.5 μg/ml) was incubated with various concentrations of synthetic caged peptide (e.g., 1-CAG-RS-20 and 9-NPG-RS-20) in the presence of 100 nM calmodulin, 0.1 mM CaCl2, 100 mM KCL, 0.2 mg/ml myosin regulatory light chain, 1 mM MgCl2, and 30 mM Tris-HCL (pH 7.5) at 25° C. for 5 minutes. 1-CAG-RS-20 and 9-NPG-RS-20 were photolyzed using the standard photolysis protocol (see above) and the uncaged peptide was purified away from by-products and caged peptides prior to the enzymatic assay using reverse phase HPLC. The phosphorylation reaction was started by adding 50 μM ^32 P-ATP. The incorporation of ^32 P into the light chain was measured by scintillation counter and the inhibitory effect of the peptide on myosin light chain kinase was determined.

calmodulin = molecular target: T1, calmodulin (Homo sapiens, UniProt P0DP23); experiment: binding to calmodulin agarose column before and after photolysis
T1 construct: purchased Sigma Chemical Co
Experimental: The 1-CAG-RS-20 was evaluated for its ability to bind a calmodulin agarose column before and after photolysis. This experiment was carried out as follows. 5 mls of calmodulin agarose (Sigma Chemical Co.) was poured into a 1 cm×10 cm glass column and equilibrated with 50 mM Tris pH 7.5, 1 mM CaEGTA, pCa 4.5 (where pCa=-log free […]. 100 nmoles 1CAGRS-20 in 1 ml of the same solution was loaded onto the column and eluted with the same solution while 14×1.5 ml fractions were collected. The elutant was then changed to 50 mM Tris pH 7.5, 1 mM EGTA, pCa 9 and 14×1.5 ml additional fractions were collected. Each fraction was analyzed for peptide by UV absorbance at 272 nm. A second 100 nmole aliquot of 1-CAG-RS-20 was irradiated by the standard photolysis protocol (see below) and loaded onto the calmodulin agarose column after extensive washing and reequilibration in the original pCa 4.5 solution.
as §1

1-CAG-RS-20: RS-20 caged analog containing caged tyrosine (α-carboxy 2-nitrobenzyl) at position 5 (ARRKY(α‑carboxy 2‑nitrobenzyl)QKTGHAVRAIGRLSS)
rate of cell shortening [1]: shortened more slowly
enhancement of inward current following a train of depolarizing stimuli ([2]; following photolysis (FIG. 3D)): blocked
enhancement of inward current following a train of depolarizing stimuli ([2]; prior to exposure to ultraviolet light (FIG. 3C)): the inward current was enhanced
inhibition of MLCK activity [3]: failed to significantly inhibit MLCK activity
binding to calmodulin agarose column (calmodulin; before photolysis, in the presence of Ca2+ (pCa 4.5), 100 nmoles loaded): does not bind appreciably
binding to calmodulin agarose column (calmodulin; following photolysis, in the presence of Ca2+, binding reversed by EGTA): binds strongly
